The text below walks through data of PubChem BioAssay AID248 (DTP/NCI, 2004).

SMILES strings stand for the structures. Several values for one entry are separate records, joined by “and”; a condition that tells them apart may be missing. Equal entries are not always repeated. Toxic doses and inconclusive results are not listed.

This assay relates to L1210 leukemia ip in BDF1 mice, survival T/C. The assay can be described thus: NCI In Vivo Anticancer Drug Screen. Data for tumor model L1210 Leukemia (intraperitoneal) in B6D2F1 (BDF1) mice. The note with it: endpoint: mean survival time, higher = longer survival. The procedure, abridged: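 Each compound was tested against a transplantable tumor grown in mice. The endpoint was survival, with treated animals benchmarked against vehicle controls as a simple ratio.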

[1] abbreviates: dose: 100.0 mg/kg/injection, schedule: Q04DX003 (ip), vehicle: Klucel (hydroxypropylcellulose) (HPC).
Where [2] appears, read: dose: 200.0 mg/kg/injection, schedule: Q04DX003 (ip), vehicle: Klucel (hydroxypropylcellulose) (HPC).
Setting [3] is: dose: 400.0 mg/kg/injection, schedule: Q04DX003 (ip), vehicle: Klucel (hydroxypropylcellulose) (HPC).
Setting [4] is: dose: 75.0 mg/kg/injection, schedule: Q01DX001 (ip), vehicle: saline.
[5] abbreviates: dose: 100.0 mg/kg/injection, schedule: Q01DX001 (ip), vehicle: saline.
Where [6] appears, read: dose: 200.0 mg/kg/injection, schedule: Q01DX001 (ip), vehicle: saline.
The mark [7] stands for this setting: dose: 100.0 mg/kg/injection, schedule: Q04DX003 (ip), vehicle: saline with Tween-80.
Where [8] appears, read: dose: 200.0 mg/kg/injection, schedule: Q04DX003 (ip), vehicle: saline with Tween-80.

Regarding `Cc1ccc(/C=C\C(=O)c2ccccc2)cc1`, the T/C reads like this: under setting [1], 100 % of control; under setting [2], 96 % of control; under setting [3], 102 % of control.
As to `CNC(=O)Oc1cccc(N)c1`, the T/C under setting [4] was 109 % of control and the T/C (dose: 150.0 mg/kg/injection, schedule: Q01DX001 (ip), vehicle: saline) was 114 % of control.
On to `O=C(O)CSC(SCC(=O)O)c1ccccc1`, for which the T/C runs as follows: (dose: 50.0 mg/kg/injection, schedule: Q04DX003 (ip), vehicle: Klucel (hydroxypropylcellulose) (HPC)) 108 % of control; under setting [1], 107 % of control; under setting [2], 100 % of control; under setting [3], 110 % of control.
Consider `Nc1nccnc1N`, for which the T/C (dose: 50.0 mg/kg/injection, schedule: Q01DX009 (ip), vehicle: saline) is 103 % of control; the T/C under setting [5] is 102 % of control; the T/C (dose: 100.0 mg/kg/injection, schedule: Q01DX009 (ip), vehicle: saline) was 105 % of control; the T/C under setting [6] is 96 % of control.
Regarding `C(=NCCN=Cc1ccccc1)c1ccccc1`, the T/C reads like this: under setting [7], 101 % of control; under setting [8], 95 % of control; (dose: 400.0 mg/kg/injection, schedule: Q04DX003 (ip), vehicle: saline with Tween-80) 111 % of control.
With `NC(=O)C1=CN(CCc2ccccc2)c2ccccc2C1S(=O)(=O)O` (stereo not given), the T/C is 98 % of control (dose: 75.0 mg/kg/injection, schedule: Q01DX001 (ip), vehicle: other); 94 % of control (dose: 150.0 mg/kg/injection, schedule: Q01DX001 (ip), vehicle: other); 96 % of control (dose: 300.0 mg/kg/injection, schedule: Q01DX001 (ip), vehicle: other).
As to `NC(=S)N/N=C(/Cc1ccccc1)CC(O)(C(F)(F)F)C(F)(F)F`, the T/C (dose: 50.0 mg/kg/injection, schedule: Q01DX009 (ip), vehicle: gum acacia) was 92 % of control; the T/C (dose: 100.0 mg/kg/injection, schedule: Q01DX009 (ip), vehicle: gum acacia) is 91 % of control; the T/C (dose: 100.0 mg/kg/injection, schedule: Q04DX003 (ip), vehicle: gum acacia) is 94 % of control; the T/C (dose: 200.0 mg/kg/injection, schedule: Q04DX003 (ip), vehicle: gum acacia) was 105 % of control.
Regarding `C/C(=N\Nc1nc2ccccc2s1)c1ccc2c(c1)Sc1ccccc1O2`, the T/C runs as follows: (dose: 75.0 mg/kg/injection, schedule: Q04DX003 (ip), vehicle: saline) 87 % of control; (dose: 150.0 mg/kg/injection, schedule: Q04DX003 (ip), vehicle: saline) 90 % of control.
As to `COc1cccc(NC(=S)NC(=O)c2ccccc2)c1`, the T/C (dose: 100.0 mg/kg/injection, schedule: Q04DX002 (ip), vehicle: Klucel (hydroxypropylcellulose) (HPC)) is 110 % of control; the T/C (dose: 200.0 mg/kg/injection, schedule: Q04DX002 (ip), vehicle: Klucel (hydroxypropylcellulose) (HPC)) was 92 % of control; the T/C (dose: 400.0 mg/kg/injection, schedule: Q04DX002 (ip), vehicle: Klucel (hydroxypropylcellulose) (HPC)) was 103 % of control.
For `CC(=O)Nc1cccc(C[P+](c2ccccc2)(c2ccccc2)c2ccccc2)c1`, the T/C is 95 % of control (dose: 5.0 mg/kg/injection, schedule: Q01DX001 (ip), vehicle: carboxymethylcellulose (CMC)); 98 % of control (dose: 10.0 mg/kg/injection, schedule: Q01DX001 (ip), vehicle: carboxymethylcellulose (CMC)); 95 % of control (dose: 20.0 mg/kg/injection, schedule: Q01DX001 (ip), vehicle: carboxymethylcellulose (CMC)); 95 % of control (dose: 40.0 mg/kg/injection, schedule: Q01DX001 (ip), vehicle: carboxymethylcellulose (CMC)); 93 % of control (dose: 80.0 mg/kg/injection, schedule: Q01DX001 (ip), vehicle: carboxymethylcellulose (CMC)); 97 % of control (dose: 100.0 mg/kg/injection, schedule: Q01DX001 (ip), vehicle: carboxymethylcellulose (CMC)). Moreover, the T/C (dose: 200.0 mg/kg/injection, schedule: Q01DX001 (ip), vehicle: carboxymethylcellulose (CMC)) is 90 % of control.
For the molecule `CC1CC(=O)Oc2ccc(C(C)(C)C)cc21` (stereo not given), the T/C was 95 % of control (dose: 100.0 mg/kg/injection, schedule: Q01DX001 (ip), vehicle: saline with Tween-80); 91 % of control (dose: 200.0 mg/kg/injection, schedule: Q01DX001 (ip), vehicle: saline with Tween-80); 95 % of control (dose: 400.0 mg/kg/injection, schedule: Q01DX001 (ip), vehicle: saline with Tween-80).
Turning to `CC(=O)c1ccncc1`, the T/C (dose: 50.0 mg/kg/injection, schedule: Q01DX001 (ip), vehicle: saline) is 94 % of control; the T/C under setting [5] was 89 % of control; the T/C under setting [6] was 94 % of control; the T/C (dose: 400.0 mg/kg/injection, schedule: Q01DX001 (ip), vehicle: saline) was 94 % of control.
On to `CCCCCCC(=O)N1C(C)CCC1C` (stereo not given), for which the T/C is 88 % of control (dose: 100.0 mg/kg/injection, schedule: Q04DX002 (ip), vehicle: saline); 94 % of control (dose: 200.0 mg/kg/injection, schedule: Q04DX002 (ip), vehicle: saline); 102 % of control (dose: 400.0 mg/kg/injection, schedule: Q04DX002 (ip), vehicle: saline).
Consider `CC(C)(C)NC(=O)Nc1ccccn1`, for which the T/C was 102 % of control and 112 % of control (dose: 100.0 mg/kg/injection, schedule: Q01DX009 (ip), vehicle: saline with Tween-80); 96 % of control (dose: 100.0 mg/kg/injection, schedule: Q04DX002 (ip), vehicle: saline with Tween-80); 97 % of control under setting [7]; 112 % of control and 91 % of control (dose: 200.0 mg/kg/injection, schedule: Q01DX009 (ip), vehicle: saline with Tween-80); 108 % of control and 115 % of control (dose: 200.0 mg/kg/injection, schedule: Q04DX002 (ip), vehicle: saline with Tween-80); 115 % of control under setting [8]. Also, the T/C was 104 % of control (dose: 400.0 mg/kg/injection, schedule: Q01DX009 (ip), vehicle: saline with Tween-80); 94 % of control and 96 % of control (dose: 400.0 mg/kg/injection, schedule: Q04DX002 (ip), vehicle: saline with Tween-80).
For the molecule `CN(C)[C@@H]1C(=O)C(C(=O)NCNC(Cc2ccc(N(CCCl)CCCl)cc2)C(=O)O)=C(O)[C@@]2(O)C(=O)C3=C(O)c4c(O)cccc4[C@@](C)(O)[C@H]3C[C@@H]12` (stereo not given in full), the T/C runs as follows: (dose: 1.3 mg/kg/injection, schedule: Q01DX009 (ip), vehicle: other) 114 % of control; (dose: 4.69 mg/kg/injection, schedule: Q01DX009 (ip), vehicle: saline) 121 % of control; (dose: 5.0 mg/kg/injection, schedule: Q01DX001 (ip), vehicle: saline) 96 % of control; (dose: 6.6 mg/kg/injection, schedule: Q01DX009 (ip), vehicle: other) 152 % of control; (dose: 9.0 mg/kg/injection, schedule: Q01DX001 (ip), vehicle: saline) 109 % of control; (dose: 10.0 mg/kg/injection, schedule: Q01DX009 (ip), vehicle: other) 173 % of control. In addition, the T/C reads like this: (dose: 18.0 mg/kg/injection, schedule: Q01DX009 (ip), vehicle: other) 189 % of control; (dose: 18.95 mg/kg/injection, schedule: Q01DX009 (ip), vehicle: saline) 162 % of control; (dose: 19.0 mg/kg/injection, schedule: Q01DX001 (ip), vehicle: saline) 102 % of control; (dose: 30.0 mg/kg/injection, schedule: Q01DX001 (ip), vehicle: other) 156 % of control; (dose: 37.5 mg/kg/injection, schedule: Q01DX009 (ip), vehicle: saline) 166 % of control; (dose: 38.0 mg/kg/injection, schedule: Q01DX001 (ip), vehicle: saline) 123 % of control. Moreover, the T/C by setting is: (dose: 44.0 mg/kg/injection, schedule: Q01DX001 (ip), vehicle: other) 152 % of control and 164 % of control; (dose: 67.0 mg/kg/injection, schedule: Q01DX001 (ip), vehicle: other) 173 % of control; under setting [4], 122 % of control; (dose: 75.0 mg/kg/injection, schedule: Q01DX009 (ip), vehicle: saline) 102 % of control; (dose: 100.0 mg/kg/injection, schedule: Q01DX001 (ip), vehicle: other) 191 % of control.
